We go through six compounds from patent US8765678B2, “Inhibition of the renin-angiotensin system for the treatment of renal, vascular and cartilage pathology” (Mor Research Applications Ltd., priority 2005, dated 2014).

Structures are written as SMILES. “Also recorded” adds a separate entry of the source.

Test [1] concerns GBM of nephrotic PAN rats. The test is described as follows: CCG binding to the GBM, electron microscopy histochemistry and morphometry. It counts as in vivo, rat. The note with it: for CCG binding to the GBM (electron micrograph): PAN injected rat kidney, without or with enalapril treatment; for CCG binding, particles/μm^2 GBM (morphometric analysis): PAN rats, non-treated or enalapril-treated, control 67.3+5.6; for anionic GAG sites / preservation of GAGs in the GBM: nephrotic PAN rats. The protocol:
(§1) Animals and treatment regimen—Twenty-six male Wistar rats (Belinson, Israel, 220-260 gr each) were housed in individual metabolic cages, and allowed free access to a standard diet and water. Following an acclimatization period of 3 days, the rats were randomized into three groups: controls, puromycin aminonucleoside-treated (PAN-treated) and PAN+ enalapril treated. Six controls were injected with 0.9% NaCl, and 20 rats were injected with PAN (75 mg/kg, Sigma, St. Louis, Mo.) through the tail vein. Ten of the latter were treated with enalapril (Merck Research Laboratories, 50 mg/L) in their drinking water 3 days prior to PAN injection. On day 9, 24-hour urine collections were performed and the protein content was measured using the Beckman Array-Protein system. On day 10, rats were weighed and blood was collected for measurement of serum albumin, creatinine and cholesterol (Autoanalyzer, Hitachi, Japan). All animal experimentation was conducted according to the guidelines established by the Rabin Medical Center ethical committee for the Care and Use of Laboratory Animals
Tissue preparation: The kidneys were removed rapidly and placed on ice and the cortices were separated from the medulla. Slices of each kidney were fixed in 0.5% glutaraldehyde in phosphate buffered saline (PBS), pH 7.4 for morphological and histochemical studies. For electron microscopy (EM), 1 mm^3 tissue blocks of GA-fixed kidneys were washed, dehydrated in ethanol, and embedded in LR-white resin (Polysciences, Wash. Pa.). For EM morphology, similar tissue blocks were post-fixed with 1% Osmium tetroxide (OsO4) in Veronal-acetate buffer, pH 7.4, for 1 hour at 4° C., dehydrated in ethanol and propylene oxide, and embedded in araldite (Polysciences).
Electron microscopy morphology and histochemistry: For EM morphology, ultrathin araldite sections were mounted on 400 mesh grids, stained with uranyl acetate and lead citrate, and coated with carbon. F or EM histochemistry, ultrathin LR-white sections were mounted on 200 mesh nickel grids, coated with formvar films and impregnated with carbon. Polycationic colloidal gold (CCG) was prepared by stabilization of colloidal gold, 12 nm with poly-L-lysine, as described by Weinstein et al., [J Am Soc Nephrol 8: 586-595, 1997]. The sections were stained with CCG, rinsed, and stained with saturated uranyl acetate in 50% ethanol. Examination of all sections was carried out using a JEOL-100B EM at 80 KV.
Morphometry: Analysis of the CCG labeling densities was performed in a blind manner on LR-white-embedded kidney tissue stained with CCG. Analysis was carried out by calculating the density of gold particles/1 μm^2 area of randomly cut membranes. Five rats from each group were studied. In each rat, 100 measurements from 10 glomeruli were performed. All measurements were carried out on digitized electron micrographs at a magnification of 5000, using the NIH-Image 1.49 program for the Macintosh.

Test [2] concerns rats with PAN nephrosis. The test is described as follows: Blood and urine tests in rats with PAN nephrosis. The format is in vivo, rat. The note with it: Wistar rats; PAN 75 mg/kg tail vein; enalapril 50 mg/L in drinking water from 3 days prior to PAN; blood day 10. The method, then: as §1
Test [3] has as its system Rat mesangial cells (RMC). The test is described as follows: Radioactive assay (^35S labeling) of cell-associated GAGs in RMC. The format is cell-based. The note with it: for cell-associated GAGs (^35S), % of control: RMC. The protocol: (§2) Rat mesangial cells (RMC): RMC derived from Sprague-Dawley rats (#ATCC-mesangial-CRL-2573) were cultured in DMEM supplemented with 15% fetal calf serum (FCS) and antibiotics, according to ATCC instructions. Mesangial cells are derived from the glomerular interstitium of the kidney and thus serve as a valuable tool for the analysis of the GBM.
(§3) Radioactive assay (^35S labeling): Cells were grown to confluence, and were rendered quiescent in 2% FCS for 24 hours, following which they were transferred to serum-free medium plus one of the following additives: control, PAN 40 μg/ml, PAN+E 200 μg/ml, PAN+E 400 μg/ml, PAN+E 800 μg/ml, PAN+C10^−7M candesartan in the presence of 1 μCi/ml ^35S. Following 24 hours, medium was collected, cells were harvested by trypsinization, and aliquots obtained for cell and protein measurements. Cells were digested with papain as described, followed by extensive dialysis against water containing a non-radioactive sodium sulfate, until water contained less than 100 cpm/ml. Dialysate was transferred to Corex tubes and the same procedure was carried out as described for non-radioactive GAGs. Radioactivity was measured in a beta-counter.

The subject of test [4] is Chondrocytes. The experiment in a line: Radioactive assay (^35S labeling) of cell-associated GAGs in chondrocytes. The format is cell-based. The protocol: Chondrocytes: Tissue bits from articular cartilage were incubated in-vitro and explant cell cultures were established as described [Nevo et al., 1972, Dev Biol 28: 219-228]. The cell cultures were assessed by immunohistochemistry.
as §3

Test [5] concerns Human umbilical vein endothelial cells (HUVEC). The experiment in a line: Radioactive assay (^35S labeling) of cell-associated GAGs in endothelial cells. The format is cell-based. The protocol: Endothelial cells: Human umbilical vein endothelial cells (HUVEC) were isolated by collagenase treatment. Cultures were established in M-199 medium containing 10% FCS, 25 μl/ml endothelial mitogen (Biomedical Technologies, Mass., USA) and antibiotics. HUVEC were passaged by treatment with 0.25% trypsin/0.02% EDTA, and passages 2-3 were used for experiments.
as §3

For test [6], the system named is Rat mesangial cells (RMC). The test is described as follows: Calorimetric assay of cell-associated GAGs. The format is cell-based. The note with it: for cell-associated GAGs: 36 hours. The protocol: as §2
Calorimetric assay: Cell-associated GAGs were isolated from RMC by cetylpyridinium chloride (CPC, Sigma) precipitation, as described by (Nevo et al., 1972). Briefly, cells were rendered quiescent in 2% FCS for 24 hours (i.e., starvation conditions), then incubated in DMEM for 36 hours with PAN 40 μg/ml (Sigma), in the presence of increasing doses of enalaprilat [(E), the active form of enalapril], according to the following protocol: control, PAN, PAN+E 200 μg/ml, PAN+E 400 μg/ml, PAN+E 800 μg/ml. Following thorough rinsing in PBS, RMC were harvested using 0.05% trypsin/EDTA. Following addition of a buffer containing 0.1 M sodium acetate, 0.005 M EDTA (Sigma), 0.005 M cysteine (Sigma), and 0.1% papain (Sigma), pH 5.4, the mixtures were incubated for 48 hours at 65° C. and dialyzed for 24 hours against distilled water. NaCl was added to the dialysate to a final concentration of 30 mM, and mixed well. GAGs were precipitated by the addition of CPC to a final concentration of 0.5% and the solution was incubated overnight at 37° C. The precipitate was collected by centrifugation, dissolved in 2 M CaCl2, reprecipitated with ethanol:ether (2:1), collected by centrifugation and dried. GAGs were determined calorimetrically (uronic acid content×3.3=GAG content) using heparan sulfate as standard and expressed as μg GAGs/10^6 cells.

For test [7], the system named is Osteoarthritic-induced rat. The test is described as follows: Osteoarthritis model of partial meniscectomy, intra-articular ACE-I gel. The note with it: rats, composite gel containing 5% captopril in the joint, 6 weeks. The format is in vivo. The source says:
Osteoarthritis (OA) was induced in 32 rats using the model of partial meniscectomy of Rolli Moskowitz [Moskowitz, R W and Goldberg V M, J. Rheumatol. 1987 May; 14 Spec No:116-8; Moskowitz, R W et al., Ann Rheum Dis. 1981 December; 40(6):584-92]. The tissues of the control rats undergoing partial meniscectomy (8 rats) were immediately closed by suturing, while to the ACE-I treated group (24 rats), immediately following post partial meniscectomy, a composite gel containing ACE-I (5% captopril) was added prior to suturing the joint layers. After 6 weeks the animals were sacrificed. Prior to termination of the experiment a physical checkup ensured the degree of limping and movement limitation of the operated lower limb using an apparatus conducting a digital measurement of the degree of disability, translated to the pressure in grams activated by the operated limb, versus the healthy limb. Histological sections of the joint, femur and tibia, were prepared and stained with hematoxylin-eosin (H&E) as well as with Alcian blue at pH 2.5 and 1.0, and Masson's trichrome stain (Dako, Calif., U.S.A.). Together, these staining techniques assess proteoglycan content and extracellular matrix deposition.

Test [8] has as its system inflammatory arthritis in mice. The note with it: Dalbeth et al., Rheumatology 44:24-31, 2004; cited from earlier work.
Test [9] deals with rats with PAN nephrosis. The experiment in a line: Electron microscopy morphology of kidney sections. The format is in vivo. The note with it: PAN injected rat kidney, without or with enalapril treatment. The method, then:
as §1
Tissue preparation: The kidneys were removed rapidly and placed on ice and the cortices were separated from the medulla. Slices of each kidney were fixed in 0.5% glutaraldehyde in phosphate buffered saline (PBS), pH 7.4 for morphological and histochemical studies. […]

[10] abbreviates: chondrocytes, pretreatment with puromycin + enalaprilat 200 μg/ml.
Where [11] appears, read: chondrocytes pretreated with puromycin.

As for `CCOC(=O)[C@H](CCc1ccccc1)N[C@@H](C)C(=O)N1CCC[C@H]1C(=O)O` [enalapril], in test [1], the “CCG binding to the GBM (electron micrograph)” value is “intense CCG binding similar to control”; the “CCG binding, particles/μm^2 GBM (morphometric analysis)” value is given as 56.0±5.5 particles/μm^2 GBM; the “anionic GAG sites / preservation of GAGs in the GBM” value was “beneficial effect on the preservation of GAGs in the GBM”. Further, in [2], the serum cholesterol turned out to be 91.7 ± 10.7 mg/dL and the serum creatinine is 0.60 ± 0.02 mg/dL.
Consider `C[C@H](N[C@@H](CCc1ccccc1)C(=O)O)C(=O)N1CCC[C@H]1C(=O)O` [enalaprilat], for which the “cell-associated GAGs (^35S), % of control” value in [3] (PAN + enalaprilat 800 μg/ml) was determined as 80%. Moreover, the “GAG synthesis (incorporation of ^35S), summary statement” value in test [3] (cell type not given, in the presence of PAN) is on record as “significantly increased GAG synthesis to control levels”. The “^35S-GAG, % of control culture” value is given as 108% in test [4] (chondrocytes, in the presence of enalaprilat 200 μg/ml, no puromycin) and 152% in test [4] (setting [10]). The “^35S-GAG cpm ± SD” value in test [4] (chondrocytes, in the presence of enalaprilat 200 μg/ml, no puromycin, control culture 6331 ± 1075) is given as 6820 ± 1651 cpm; in test [4] (setting [10]) it was 9636 ± 1848 cpm. Moreover, in [5] (PAN + enalaprilat 800 μg/ml), the “cell associated GAGs (^35S), % of control” value is 96%. Further, the “cell-associated GAGs” value in test [6] (PAN 40 μg/ml + E 200 μg/ml) is recorded as 2.43+0.42 μg GAGs/10^6 cells; in test [6] (PAN 40 μg/ml + E 400 μg/ml) it was 2.8+0.65 μg GAGs/10^6 cells; in test [6] (PAN 40 μg/ml + E 800 μg/ml), 5.3±0.43 μg GAGs/10^6 cells. Besides, the “GAG content, dose dependence” value in test [6] (PAN 40 μg/ml + enalaprilat 200-800 μg/ml) is “dose-dependent rise in GAG content”.
Regarding `C[C@H](CS)C(=O)N1CCC[C@H]1C(=O)O` [captopril], in test [7], the OA manifestations entry is “only a mild initiation of OA, evident by minimal fibrillations and cell cloning; also recorded: slows down, and minimizes the OA manifestations”; the “articular cartilage histology (cellularity, proteoglycans)” value is reported as “highly cellular, with a dense presentation of proteoglycans”.
As to `CCOc1nc2cccc(C(=O)O)c2n1Cc1ccc(-c2ccccc2-c2nnn[nH]2)cc1` [candesartan], the “cell-associated GAGs (^35S), % of control” value stood at 76 ± 6.2% in [3] (PAN + candesartan 10^−7 M (first column of that head, c3)) and 102% in [3] (PAN + candesartan 10^−7 M (second column of that head, c4)). In [5] (PAN + candesartan 10^−7 M), the “cell associated GAGs (^35S), % of control” value is 107%.
Consider `CCOC(=O)[C@H](CCc1ccccc1)N[C@@H](C)C(=O)N1Cc2ccccc2C[C@H]1C(=O)O` [quinapril], for which the “inflammatory arthritis / disease activity” value in [8] was “suppress inflammatory arthritis”.
Turning to `CN(C)c1ncnc2c1ncn2[C@@H]1O[C@H](CO)[C@@H](N)[C@H]1O` [PAN, puromycin aminonucleoside], in [1], the “CCG binding to the GBM (electron micrograph)” value is “marked decrease in CCG binding to the GBM”; the “CCG binding, particles/μm^2 GBM (morphometric analysis)” value came to 39.1±1.0 particles/μm^2 GBM; the “anionic GAG sites / preservation of GAGs in the GBM” value was “decreased anionic GAG sites in the GBM”. For the same compound, the “cell-associated GAGs (^35S), % of control” value in [3] (PAN 40 μg/ml, 24 hours) turned out to be 69%. Besides, in test [2], the serum creatinine is 0.60 ± 0.01 mg/dL. Moreover, in test [4] (setting [11]), the “^35S-GAG cpm ± SD” value is reported as 4333 ± 108 cpm and the “^35S-GAG, % of control culture” value was determined as 68%. The “cell associated GAGs (^35S), % of control” value in test [5] (PAN 40 μg/ml) amounted to 81%. Further, in test [6] (PAN 40 μg/ml, control 5.03+0.6), the “cell-associated GAGs” value is 2.35±0.54 μg GAGs/106 cells. Further, the “podocyte architecture (electron microscopy)” value in test [9] was “loss of podocyte architecture in the glomeruli with flattening and effacement of foot processes”.
